Results taken from PMC6712804 (BMC Cancer, 2019).
Where “and” joins values, the source holds several entries; their conditions need not be identical. Equal entries are not always repeated.

Tests used:
[1] = tested on: OXPHOS (OCR) and glycolysis (ECAR) in BE-2c cells; assay: Metabolic flux analysis and cell energy phenotype (XFp Seahorse); assay type: cell-based; settings: 18 h, metformin 5 mM
Experimental: Six wells of an XFp culture plate were seeded with 15,000 BE-2c cells/well in 80 μL DMEM with 10% FBS. […] The XFp Cell Energy Phenotype assay utilizes oligomycin as an inhibitor of ATP synthase and FCCP which is a mitochondrial uncoupling reagent. Oligomycin inhibits mitochondrial ATP production leading to a compensatory increase in glycolysis to meet energy demands. FCCP depolarizes the mitochondrial membrane driving the oxygen consumption rates higher as mitochondria restore polarization. The results were graphed on a grid indicating degree of aerobic/glycolytic metabolism and energetic/quiescent phenotypes.

[2] = tested on: MYCN, MCL-1, PARP, LC3I, LC3II, BRD-4, bcl-2 and BAX gene expression in BE-2c cells; assay: RNAseq gene expression analysis; assay type: cell-based; set-up: RNAseq expression value, MYCN gene / RNAseq expression value, MCL-1 gene / RNAseq expression value, LCII gene / RNAseq expression value, LCI gene / RNAseq expression value, BRD-4 gene / RNAseq expression value, Bcl-2 gene / RNAseq expression value, BAX gene: unit not given here; settings: 18 h, TEM alone 1 μM
Experimental: Total RNA was extracted using the RNeasy Micro Kit (Qiagen, Germantown, MD). Nano Drop was used to measure RNA concentration and purity and integrity was evaluated using Agilent Bioanalyzer System (Agilent Technologies, Santa Clara, CA). RNA sequencing and library preparation was performed using Maestro TruSeq Application (Perkin Elmer, Waltham, MA). Parameters used were optimized for 50 bp single-end reads with 20 million reads per sample. […] Gene expression analysis are reported for those pathways where protein analysis was performed (MYCN, MCL-1, PARP, LC3I, LC3II, BRD-4, bcl-2, and BAX).

[3] = tested on: BE2-c subcutaneous tumors; assay: Anti-tumor activity in BE2-c tumor bearing NSG mice; assay type: in vivo; settings: follow up study, dosing three times per week
Experimental: A follow up study of the combination integrated control groups and modified dosing of MP1 plus TEM to three times per week at the doses described above. […] Tumor measurements were performed daily and treatments began on the first day the tumor achieved 2 mm^3 in size.

[4] = compared to untreated controls
Experimental: NSG mice were injected subcutaneously with 5 × 10^5 BE2-c cells in a 50:50 PBS/Matrigel® solution. […] Bone marrow was collected at necropsy for a CFU-GM assay to assess bone marrow toxicity.

With `CN(C)C(=N)N=C(N)N` [metformin] the “Effect on OXPHOS and glycolysis” value [1] was “uncoupled OXPHOS metabolism without effects on glycolysis”.

In the case of `CO[C@H]1C[C@@H]2CC[C@@H](C)[C@@](O)(O2)C(=O)C(=O)N2CCCC[C@H]2C(=O)O[C@H]([C@H](C)C[C@@H]2CC[C@@H](OC(=O)C(C)(CO)CO)[C@H](OC)C2)CC(=O)[C@H](C)/C=C(\C)[C@@H](O)[C@@H](OC)C(=O)[C@H](C)C[C@H](C)/C=C/C=C/C=C/1C` [TEM, temsirolimus], the “Change (fold change treatment over control), BAX gene” value [2] was −1.14, the “Change (fold change treatment over control), BRD-4 gene” value [2] was −1.06 and the “Change (fold change treatment over control), Bcl-2 gene” value [2] was 1.45. The “Change (fold change treatment over control), MCL-1 gene” value [2] was −1.12, the “Change (fold change treatment over control), MYCN gene” value [2] was 1.0 and the “Change (fold change treatment over control), PARP1 gene” value [2] was −1.2. The “RNAseq expression value, BAX gene” value ([2]; replicates #1-#3) was 42.7 and 37.3 and 40.6, the “RNAseq expression value, BRD-4 gene” value ([2]; replicates #1-#3) was 70.4 and 71.4 and 72.7 and the “RNAseq expression value, Bcl-2 gene” value ([2]; replicates #1-#3) was 49.2 and 52.0 and 47.7. The “RNAseq expression value, LCI gene” value ([2]; replicates #1-#3) was 5.1 and 4.4 (2×), the “RNAseq expression value, LCII gene” value ([2]; replicates #1-#3) was 92.7 and 92.5 and 89.7 and the “RNAseq expression value, MCL-1 gene” value ([2]; replicates #1-#3) was 281 and 282 and 276. The “RNAseq expression value, MYCN gene” value ([2]; replicates #1-#3) was 2264 and 2140 and 2232, the “RNAseq expression value, PARP1 gene” value ([2]; replicates #1-#3) was 580 and 617 and 599 and the Complete responses [3] was “no complete responses”. For the same molecule, the “Bone marrow toxicity (CFU-GM assay)” value [4] was “unaffected”.
